Reference: patent publication US20260053942A1, “STING AGONIST IMMUNOSTIMULATORY ANTIBODY DRUG CONJUGATES” (ASTELLAS PHARAMA INC., priority 2024, published 2026)

Columns and labels:
[1] = tested on: NCI-H441 cells and human PBMCs; assay: NCI-H441/PBMC co-culture (title of Table 16): cytokine (IP-10) release; format: cell-based; parameters: key: NC = Not Calculable due to incomplete curve
Description: (§1) For the co-culture assay, cancer cells were plated on transparent flat bottom polystyrene plates and allowed to attach overnight. The next day, serially diluted (1:4) test articles were formulated at 3× starting concentration in complete RPMI media and added onto each well. Human PBMCs were thawed and resuspended in RPMI supplemented with 10% heat-inactivated fetal bovine serum from Hyclone, 1% Penicillin/Streptomycin and 2 mM/L-glutamax. PBMCs were then added into the same well at a final ratio of PBMCs:cancer cells=30:1. Plates were incubated for 2 or 3 days at 37° C. with 5% CO2 in a cell culture incubator.
(§2) To measure the cytokine released in this assay, customized MSD V-plex plates were ordered to measure human IL6, IP-10, TNFα, IFNγ, IL-1α, MCP-1, MIP1α. The supernatant was thawed and diluted 1:50 using dilution buffer provided by the vendor before being added into the MSD plates. Cytokine measurement in the cell culture supernatant was carried out using protocols provided by the vendor. Raw data generated by the Meso Scale Discovery (MSD®) SQ120 plate reader were imported into MSD Discovery Workbench software. Unknown sample values were interpolated from standard curves by the software and imported into GraphPad Prism. Each cytokine level was fitted with non-linear regression analysis, using log(agonist) vs. response, variable slope, 4-parameter fit equation in GraphPad Prism. […]

[2] = tested on: NCI-H292 cells; assay: NCI-H292/PBMC co-culture: tumor cell killing (NCI-H292 cell count); format: cell-based, human; details: TROP2 positive NCI-H292/PBMC co-culture
Description: (§3) The ability of different TROP2 iADCs to induce cancer cell killing, immune activation, and cytokine release was evaluated in an in vitro co-culture assay with human cancer cells and human PBMCs.
(§4) Residual RBCs were removed using ACK lysis buffer (Gibco) for 10 minutes, followed by DPBS wash. Isolated PBMCs were counted, resuspended in freezing medium (Sigma) and stored in a freezing vessel at −80° C. for 24 hours before being transferred to vapor-phase liquid nitrogen for long-term storage.
(§5) For the co-culture assay, cancer cells were plated on transparent flat bottom polystyrene plates and allowed to attach overnight. The next day, serially diluted (1:4) test articles were formulated at 3× starting concentration in complete RPMI media and added onto each well. […]
(§6) On the day of sample collection, cell culture supernatants were collected and stored at −80° C. until cytokine release analyses were performed. […] Cells were then washed with FACS buffer again and read on Cytek flow cytometer. […]
(§7) The ability of different TROP2 iADCs to induce cancer cell killing, immune activation, and cytokine release was evaluated in an in vitro co-culture assay with TROP2 positive CaoV3 cells or NCI-H292 cells and human PBMCs. h1925-C06, an anti-TROP2 antibody, was conjugated to LP-C1 on the heavy chain Y180/F404 sites and to different STING agonist linker payloads at light chain K42 sites. […]

[3] = tested on: NCI-H292 cells; assay: IP-10 and IL-6 release from TROP2 positive NCI-H292 cells, 120 hours (MSD); format: cell-based, human; details: for EC50: Homo sapiens
Description: The cell supernatant was collected and IP-10 and IL-6 released in the cell culture medium was measured using Streptavidin single spot 96 well plates, compatible human antibody pairs, and calibrating solutions commercially available from MesoScale Discovery. Raw data generated by the Meso Scale Discovery (MSD®) SQ120 plate reader was imported into MSD Discovery Workbench software. Unknown sample values were interpolated from standard curves by the software and imported into Graphpad Prism. Each cytokine level was fitted with non-linear regression analysis, using log(agonist) vs. response, variable slope, 4-parameter fit equation in GraphPad Prism.

[4] = tested on: NCI-H441 cells; assay: NCI-H441/PBMC co-culture (title of Table 16): tumor cell killing; format: cell-based, human
Description: as §3, §4, §1, §6

[5] = tested on: NCI-H292 cells; assay: Immunogenic cell death: HMGB1 release in supernatant (sandwich ELISA), 48 hours; format: cell-based, human
Description: (§8) Immunogenic cell death elicited by the TROP2 ADC, iSAC, iADCs and exatecan were measured by cell surface translocate of calreticulin and release of HMGB1 in the cell culture supernatant. Briefly, TROP2 positive cell line NCI-H292 were seeded into a 96-well flat bottom plate 4 hours prior to the initialization of the assay. Test articles were formulated at a 2× starting concentration in cell culture medium, and samples were serial diluted (1:3) under sterile conditions and added onto the cells in duplicates. After incubation at 37° C. in a CO2 incubator for 48 hours, the cell supernatant was collected for measuring HMGB1 and the adherent cells were collected for calreticulin expression on the cell surface.
HMGB1 released in the supernatant was assessed via sandwich ELISA using mouse anti-human HMGB1 clone 2F6 (Sigma-Aldrich) as the capture, polyclonal rabbit anti-human HMGB1 (Abcam) as secondary, and polyclonal goat anti-rabbit IgG HRP as the detection antibody. The HMGB1 concentrations in the cell culture medium were calculated based a standard curve built on commercially available recombinant human HMGB1 (R&D Systems).

[6] = tested on: human PBMCs; assay: NCI-H292/PBMC co-culture: monocyte/immune cell count and activation (FACS); format: cell-based; details: TROP2 positive NCI-H292/PBMC co-culture
Description: as §3, §4, §5, §6, §7

[7] = tested on: NCI-H292 cells; assay: Immunogenic cell death: cell surface calreticulin (CALR) on live cells (flow cytometry), 48 hours; format: cell-based, human; details: for induction of CALR on live cells compared to untreated cells: NCI-H292 cells
Description: as §8
NCI-H292 cells were detached using Accutase (Innovative Cell Technologies) and viability was accessed using a 1:500 dilution of Zombie NIR viability dye. […] Surface calreticulin measures on the live cells were gathered using an Attune NXT Flow Cytometer (ThermoFisher Scientific) to obtain median fluorescence intensity values. All data were fitted with non-linear regression analysis, using log(agonist) vs. response, variable slope, 4 parameter fit equation using GraphPad Prism.

[8] = tested on: NCI-H460 cells; assay: NCI-H460/PBMC co-culture (TROP2 negative): tumor cell killing; format: cell-based, human
Description: as §3, §4, §1
On the day of sample collection, cell culture supernatants were collected and stored at −80° C. until cytokine release analyses were performed. All the cells in the well were combined (both suspension and adherent cells) and resuspended in 50 μL of PBS containing Live/Dead Fixable Violet Dead Cell Stain (Thermo Fisher) and 1× human Fc block (BD Biosciences) and incubated at 37° C. for 20 minutes. […] After incubation on ice for 1 hour, cells were washed with FACS buffer and fixed with 50 uL/well of 2% PFA (paraformaldehyde) for 20 minutes. Cells were then washed with FACS buffer again and read on Cytek flow cytometer. FACS data analysis was done by Flowjo software to identify monocytes, B cells, CD4+ T cells, CD8+ T cells, NK cells and Dendritic cells and their activation status. Data from Flowjo was exported and plotted using non-linear regression analysis, log(agonist/inhibitor) vs. response, variable slope, 4-parameter fit equation in GraphPad Prism. […]

[9] = tested on: NCI-H460 cells and human PBMCs; assay: NCI-H460/PBMC co-culture (TROP2 negative): cytokine (IP-10) release; format: cell-based; parameters: key: NC = Not Calculable due to incomplete curve
Description: as §1, §2

[10] = tested on: TROP2 positive NCI-H292, NCI-H441 cells and TROP2 negative NCI-H460 and NCI-H1703 cells; assay: Cell proliferation (cell killing) assay, cell line panel; format: cell-based, human; details: all TROP2 positive and negative cell lines tested
Description: (§9) The cytotoxicity of the ADCs, iSACs and iADCs was measured in a cell proliferation assay. TROP2 positive NCI-H292, NCI-H441 cells and TROP2 negative NCI-H460 and NCI-H1703 cells were obtained from ATCC (American Type Culture Collection) and maintained in DMEM/F12 (1:1), high glucose (Corning) supplemented with 10% heat-inactivated fetal bovine serum (Thermo Scientific), 2 mM glutamax (Thermo Scientific), and 1× Penicillin/Streptomycin (Corning).
(§10) Cells were collected and counted by the Vi-CELL Cell Viability Analyzers (Beckman Coulter). A total of 7500 cells in a volume of 50 uL were seeded in each well of a 96-well flat bottom white Polystyrene plate. Test articles were diluted at 2× final concentration in the cell culture medium and 50 uL was added into each treatment well. Assay plates were cultured at 37° C. in a CO2 incubator for 120 hours. For cell viability measurement, 60 μL of Cell Titer-Glo® reagent (Promega Corp. Madison, WI) was added into each well, and plates were processed as per product instructions. Relative luminescence was measured on an ENVISION® plate reader (Perkin-Elmer; Waltham, MA). Relative luminescence readings were converted to % viability using untreated cells as controls. Data was fitted with non-linear regression analysis, using log(inhibitor) vs. response-variable slope, 4 parameter fit equation using GraphPad Prism (GraphPad v 5.00, Software; San Diego, CA).

[11] = tested on: NCI-H460 (Trop2-); assay: Cell proliferation (cell killing) assay, Cell Titer-Glo, 120 hours; format: cell-based, human; details: for EC50: Homo sapiens
Description: as §9, §10

[12] = tested on: NCI-H1703 (Trop2-); assay: as above; format: cell-based, human; details: for EC50: Homo sapiens
Description: as §9, §10

[13] = tested on: NCI-H441 (Trop2+); assay: as above; format: cell-based, human; details: for EC50: Homo sapiens
Description: as §9, §10

[14] = tested on: NCI-H292 (Trop2+); assay: as above; format: cell-based, human; details: for EC50: Homo sapiens
Description: as §9, §10

[15] = TROP2 positive NCI-H292 cells, read-out: IL-6 Release EC50
[16] = TROP2 positive NCI-H292 cells, read-out: IP-10 Release EC50
[17] = NCI-H292 cells, read-out: IL-6 induction EC50
[18] = NCI-H292 cells, read-out: IP-10 induction EC50

EC50 [3, 15] [nM] | EC50 [3, 16] [nM] | EC50 [3, 17] [nM] | EC50 [3, 18] [nM] | Structure (SMILES) | IL-6 Release Span ([3]; TROP2 positive NCI-H292 cells) [pg/mL] | IP-10 Release Span ([3]; TROP2 positive NCI-H292 cells) [pg/mL] | release of HMGB1 into the cell culture supernatant [5] [ng/mL] | HMGB-1 Release Span ([5]; supernatant) [ng/mL] | induction of CALR on live cells compared to untreated cells [7] | cell killing (in words) [10] | Span cell killing [11] [%] | EC50 [11] [nM] | Span cell killing [12] [%] | EC50 [12] [nM] | Span cell killing [13] [%] | EC50 [13] [nM] | Span cell killing [14] [%] | EC50 [14] [nM] | other results
> 100 | > 100 | > 100 | > 100 | CCn1nc(C)cc1C(=O)Nc1nc2cc(C(N)=O)ccc2n1C/C=C/Cn1c(NC(=O)c2cc(C)nn2CC)nc2cc(C(N)=O)cc(OCCCN3CC4(CNCCO4)C3)c21 [Compound S-1] | >10000 | >4000 | 30 | 17 | no induction of CALR | did not result in significant cell killing | <15 | > 100 | <15 | > 100 | <15 | > 100 | <15 | > 100 | –
> 100 | > 100 | > 100 | > 100 | CCn1nc(C)cc1C(=O)Nc1nc2cc(C(N)=O)cc(OC)c2n1C/C=C/Cn1c(NC(=O)c2cc(C)nn2CC)nc2cc(C(N)=O)cc(OCCCN3CCC(c4nnc5n4CCNC5)CC3)c21 [Compound S-3, 1-[(E)-4-[5-Carbamoyl-2-[(2-ethyl-5-methyl-pyrazole-3-carbonyl)amino]-7-[3-[4-(5,6,7,8-tetrahydro-[1,2,4]triazolo[4,3-a]pyrazin-3-yl)-1-piperidyl]propoxy]benzimidazol-1-yl]but-2-enyl]-2-[(2-ethyl-5-methyl-pyrazole-3-carbonyl)amino]-7-methoxy-benzimidazole-5-carboxamide] | >8000 | >4000 | 30 | 11 | no induction of CALR | did not result in significant cell killing | <15 | > 100 | <15 | > 100 | <15 | > 100 | <15 | > 100 | –

Structure (SMILES) | EC50 [3, 15] [nM] | EC50 [3, 16] [nM] | EC50 [3, 17] [nM] | EC50 [3, 18] [nM] | IL-6 Release Span ([3]; TROP2 positive NCI-H292 cells) [pg/mL] | IP-10 Release Span ([3]; TROP2 positive NCI-H292 cells) [pg/mL] | release of HMGB1 into the cell culture supernatant [5] [ng/mL] | HMGB-1 Release Span ([5]; supernatant) [ng/mL] | induction of CALR on live cells compared to untreated cells [7] | cell killing (in words) [10] | Span cell killing [11] [%] | EC50 [11] [nM] | Span cell killing [12] [%] | EC50 [12] [nM] | Span cell killing [13] [%] | EC50 [13] [nM] | Span cell killing [14] [%] | EC50 [14] [nM] | other results
CC[C@@]1(O)C(=O)OCc2c1cc1n(c2=O)Cc2c-1nc1cc(F)c(C)c3c1c2[C@@H](N)CC3 [Exatecan, exatecan, reference compound] | 14.7 | 0.87 | – | – | 1410 | 203 | ~70 | 55 | ~2 fold | good cell killing | 83 | 0.97 | 95 | 1.04 | 89 | 0.57 | 80 | 0.88 | IP-10 Release Span [1]: NC; tumor cell killing (in words) [2]: potent tumor cell killing; induction of IP-10 and IL-6 release (in words) ([3]; NCI-H292 cells): not; IC50 ([4]; Homo sapiens, tumor cell killing, read-out: Cancer Cell Count IC50): 0.44 nM; Cancer Cell Count Span ([4]; Span = Top minus Bottom of dose response curve): 5,749 Cell Count; EC50 ([5]; Homo sapiens, supernatant, read-out: HMGB-1 Release EC50): 2.08 nM; immune cell activation and cytokine release (in words) [6]: did not induce activation of any immune populations; EC50 ([7]; Homo sapiens, NCI-H292 live cells, cell surface): 0.19 nM; Calreticulin Span ([7]; NCI-H292 live cells, cell surface): 783 MFI; IC50 ([8]; Homo sapiens, NCI-H460/PBMC co-culture, TROP2 negative, tumor cell killing, read-out: Cancer Cell Count IC50): 0.38 nM; Cancer Cell Count Span ([8]; NCI-H460/PBMC co-culture, TROP2 negative): 23,530 Cell Count; tumor cell killing (in words) ([8]; TROP2 negative NCI-H460/PBMC co-culture): potent tumor cell killing; IP-10 Release Span [9]: NC
